According to PMC6278378, “Virtual Screening, Biological Evaluation, and 3D-QSAR Studies of New HIV-1 Entry Inhibitors That Function via the CD4 Primary Receptor” (Molecules, 2018):
Peptide text beside a SMILES is read from it.

Biological target: T1, CD4 (Homo sapiens, UniProt P01730)
T1 construct: endogenous in cells; host or cells: SUP-T1 cells
Test: CD4 competitive binding assay (FITC anti-human CD4 antibody, SUP-T1 cells)
Details: for inhibition at 100 µM / Inhibition at 100 μM (%): inhibition of anti-human CD4 antibody binding to SUP-T1 cells; for PInhibition (Experimental Data): transformed from % inhibition at 100 μM, presented as -ln
Method: We chose CD4-expressing SUP-T1 cells to perform the competitive CD4 binding assay. Non-labeled anti-human CD4 antibody (RPA-T4 clone, BioLegend, San Diego, CA, USA) was used as a positive control.
The SUP-T1 cells were cultured in RPMI1640 medium supplemented with 10% (v/v) fetal bovine serum (FBS), 100 IU penicillin, 0.1 mg/mL streptomycin, and 2 mM L-glutamine. After collecting and washing twice with fluorescence activated cell sorting (FACS) buffer (0.5% BSA, 0.05% sodium azide in PBS) by centrifugation, SUP-T1 cells were seeded in a 96-well v-bottom plate at 5 × 10^5 cells/well. The supernatant was discarded by centrifugation and the cell pellet was resuspended with 50 μL various 2× concentrations of test compounds and 50 μL fluorescein isothiocyanate (FITC) labeled anti-human CD4 antibody (RPA-T4 clone, BioLegend, San Diego, CA, USA). The plate was incubated for 40 min on ice. After incubation, the cells were washed twice with FACS buffer by centrifugation, and then resuspended with the assay buffer. The FACS buffer was added at a volume of 50 μL per well. The fluorescence (485EX/528EM) was recorded using a Synergy II plate reader (BioTek Instruments, Inc., Winooski, VT, USA). Experimental data were generated in duplicate each time, and from at least three independent experiments. The mean values of fluorescence were normalized and expressed as a percentage of the control group values. Binding curves and IC50 values were calculated by GraphPad Prism 7 (GraphPad Software Inc., La Jolla, CA, USA) and presented as the mean ± SEM.

Row | SMILES | inhibition at 100 µM [%] | Inhibition at 100 μM (%) | PInhibition (Experimental Data)
1 | Cn1c(=O)c2c(nc(NCCNc3nc4c(c(=O)n(C)c(=O)n4C)n3C)n2C)n(C)c1=O [Compound 1] | 34.2 |  | 
2 | Nc1ccc(S(=O)(=O)c2ccc(NCN3C(=O)NC(=O)C(=O)C3=O)cc2)cc1 [Compound 2] | 36.9 |  | 
3 | N[C@@H](CSC1(c2ccc(Cl)cc2)c2ccccc2-c2ccccc21)C(=O)O [Compound 4] | 22.6 |  | 
4 | Nc1ccn([C@H]2O[C@H](CO)[C@@H]3[O][Sn]([c]4ccccc4)([c]4ccccc4)[O][C@H]32)c(=O)n1 [Compound 5] |  | 33.09 | 
5 | Cc1cc(=O)oc2cc(O)cc(O)c12 [Compound 6] |  | 5.64 | 2.762
6 | CC(=O)c1c(O)c2ccccc2oc1=O [Compound 7] |  | 8.87 | 2.988
7 | CCCCC(=O)c1c(O)ccc2c(C)cc(=O)oc12 [Compound 8] |  | 12.04 | 3.136
8 | CSCCC(NC(=O)C(CC(C)C)NC(=O)CNC(=O)C(NC(=O)C(Cc1ccccc1)NC(=O)C(CCC(N)=O)NC(=O)C(CC(=O)O)NC(=O)C(CO)NC(=O)C(CCCCN)NC(=O)C1CCCN1C(=O)C(NC(=O)C(N)CC(=O)O)C(C)C)C(C)C)C(N)=O (centres unmarked) [Compound 9] (H-DVPKSDQFVGLM-NH2; configuration not given here) |  | 6.40 | 2.835
9 | O=C(O)Cc1cc(=O)oc2cc(O)ccc12 [Compound 10] |  | 16.98 | 3.311
10 | Cc1cc(=O)oc2c(O)c(O)ccc12 [Compound 11] |  | 10.83 | 3.084
11 | O=c1oc2cc(O)ccc2c2c1CCCC2 [Compound 12] |  | 5.27 | 2.745
12 | CCC(=O)c1cc2ccc(O)cc2oc1=O [Compound 13] |  | 11.80 | 3.126
13 | O=c1oc2cccc(O)c2c(O)c1Cc1ccccc1 [Compound 14] |  | 8.47 | 2.966
14 | CC(=O)/C=C(\c1ccccc1)c1c(O)c2ccccc2oc1=O [Compound 15] |  | 15.80 | 3.273
15 | CCC(=O)c1c(O)c2ccccc2oc1=O [Compound 16] |  | 19.76 | 3.391
16 | CCCCCCCCCCCC(=O)c1c(O)c2ccccc2oc1=O [Compound 17] |  |  | 3.774
17 | CCCCC(=O)c1c(O)c2ccccc2oc1=O [Compound 18] |  |  | 3.771
18 | O=C(O)Cc1cc(=O)oc2cc(O)ccc12 [Compound 19] |  |  | 3.668
19 | O=C(/C=C/c1ccccc1)CCc1c(O)c2ccccc2oc1=O [Compound 20] |  |  | 3.874
20 | O=C(O)Cc1cccc2c(=O)cc(-c3ccccc3)oc12 [Compound 21] | > 20 |  | 3.702
21 | Cc1ccc(-c2cc(=O)c3cccc(CC(=O)O)c3o2)cc1 [Compound 22] |  |  | 3.809
22 | O=C(O)CCc1cccc2c(=O)cc(-c3ccccc3)oc12 [Compound 23] |  |  | 3.690
23 | O=C(O)Cc1cccc2c(=O)cc(Cc3ccccc3)oc12 [Compound 24] |  |  | 3.920
24 | O=C(O)Cc1cccc2c(=O)cc(C3CCCCC3)oc12 [Compound 25] |  |  | 3.541
25 | Cc1cc(=O)c2cccc(CC(=O)O)c2o1 [Compound 26] |  | 18.10 | 3.344
